# Assay results reported in paper PMC11959756, “PepH3-modified nanocarriers for delivery of therapeutics across the blood-brain barrier” (Fluids and Barriers of the CNS, 2025).
# Assays:
# [1] = test system: primary rat brain endothelial cells (RBEC); assay: Real-time impedance measurement of cellular toxicity on RBEC; assay type: cell-based; conditions: Quasar 570 labelled PepH3 1.875-120 µM, 24 h; impedance at 10 kHz; n=6-12
# Method: Kinetics of the effect of PepH3 peptide, PepH3-tagged and non-tagged NPs on RBEC cells was monitored by impedance measurement at 10 kHz (RTCA-SP instrument; ACEA Biosciences, USA). Impedance measurement is a label-free, real time, non- invasive method, and correlates linearly with adherence, growth, number, and viability of cells. For background measurements 50 µL cell culture medium was added to the wells, then cells were seeded at a density of 6 × 10^3 cells/well to collagen type IV (100 µg/mL) and fibronectin (25 µg/mL) coated 96-well plates with integrated gold electrodes (E-plate 96, ACEA Biosciences, USA). Cells were cultured for 4 days and monitored every 5 min until the end of experiments. At the beginning of plateau phase of growth, cells were treated with PepH3 (1.875-120 µM) and PepH3-tagged and non-tagged NPs (0.1-3.0 mg/mL) for 24 h. Cell index was defined as Rn-Rb at each time point of measurement, where Rn is the cell-electrode impedance of the well when it contains cells and Rb is the background impedance of the well with the medium alone.
# [2] = test system: primary rat brain endothelial cells (RBEC); assay: Cellular uptake of PepH3 peptide in living RBECs (confocal microscopy, image analysis); assay type: cell-based; conditions: Quasar 570 labelled PepH3 100 nM, 37 °C, confocal image analysis normalized to nuclear intensity, n=10-25
# Method: To visualize the cellular uptake of PepH3 peptide alone, the cells were cultured in Matrigel coated glass bottom culture dishes (diameter: 3.5 cm, Greiner Bio-One, Germany). Confluent monolayers were incubated with the peptide solution (100 nM) diluted in the culture medium of RBEC at 37 °C for 30 min, 5–24 h. For the staining of cell nuclei, Hoechst 33342 dye (1 µg/mL, 10 min) was used. After incubation the culture medium was removed and cells were washed with Ringer-HEPES buffer (118 mM NaCl, 4.8 mM KCl, 2.5 mM CaCl2, 1.2 mM MgSO4, 5.5 mM D-glucose, 20 mM HEPES, pH 7.4) supplemented with 1% PDS. For visualization of PepH3, living cells was imaged using Leica TCS SP5 confocal laser scanning microscope (Leica Microsystems, Germany).
# [3] = test system: rat triple co-culture BBB model (RBEC, RPC, RAC); conditions: 10 nM, 30 min
# [4] = cited from earlier work
# From the text: There was a fast clearanc ...
substance,measurement,setting,value
"Q-AGILKRW-NH2 [PepH3, cationic 7-residue peptide (AGILKRW), BBB peptide shuttle derived from Dengue virus type-2 capsid protein; tested Quasar 570 labelled]",Effect on impedance (viability) of RBEC cell layers,[1],good cell viability
same,Peptide internalization after 5 h compared to the 30 min group,[2],1.9 fold
same,Peptide internalization after 24 h compared to the 30 min group,[2],6 fold
same,Papp of PepH3 relative to transcellular BBB marker albumin (EBA),[3],71 times
same,"Accumulation in liver, lung and kidney in vivo",[4]; biodistribution profile compared to FC5,low accumulation
same,Brain uptake in vivo,"[4]; radiolabeled PepH3 peptide derivatives, biodistribution",high brain uptake
